Measurements reported in patent US20190105264A1, “NON-INVASIVE OCULAR DRUG DELIVERY DEVICES” (Aciont Inc., priority 2017, published 2019).

What was measured:
treated eyes (right eye) = settings: rabbit, in vivo
[1] = Ocular toxicity study: body weight; settings: 20 min, 12 weekly doses

Typical conjunctival injection scores immediately after treatment (treated eyes (right eye); New Zealand White, 12 weeks): 1 or <1 | Ocular findings in treated eyes (conjunctival injection, discharge, corneal haze) (treated eyes (right eye)): transient and mild in nature
SMILES: C[C@@H]1C[C@H]2[C@@H]3CCC4=CC(=O)C=C[C@]4(C)[C@@]3(F)[C@@H](O)C[C@]2(C)[C@@]1(O)C(=O)COP(=O)(O)O [DSP, dexamethasone sodium phosphate]
Body Weight ([1]; 15% DSP): 8% loss | Body Weight ([1]; 25% DSP): 13% loss
